A melting point compilation (Tetko et al.; mined from patent text by program, amines drawn as free bases though some values may be those of a salt)

| melting point | Structure (SMILES) |
| --- | --- |
| 138 to 140 °C | OC1CCCc2nc3ccccc3c(NCCCOc3ccccc3)c21 (stereo not drawn) |
| 224 °C | Cn1c(=O)c(S(C)(=O)=O)c(N2CCN(C(=O)c3cccs3)CC2)c2ccccc21 |
| 114 to 115 °C | Cc1ccccc1CNC(=O)[C@@H]1CSCN1C(=O)[C@@H](O)[C@H](Cc1ccccc1)NC(=O)C(C)C(C)C(=O)OC[C@H]1O[C@@H](n2cc(C)c(=O)[nH]c2=O)CC1N=[N+]=[N-] (stereo partly drawn) |
| 207 to 208 °C | Cc1nc(NC(=O)c2cccc(C#N)c2)sc1C(=O)NCc1ccccc1 |
| 215 °C | OCC1OC(n2cnc3c(Nc4ccc(Cl)cc4)ccnc32)C(O)C1O (stereo not drawn) |
| 135 to 148 °C | Cc1nc(-c2ccc(C(=N)NO)cc2)sc1C(=O)N[C@H](C)[C@](O)(Cn1cncn1)c1ccc(F)cc1F |
| 219 to 220 °C | C[C@@H](n1ncn(-c2ccc(-n3ccnn3)cc2)c1=O)[C@](O)(Cn1cncn1)c1ccc(F)cc1F |
| 297 to 298 °C | CC(C)(C)c1ccc(C(=O)Nc2cn3cc(-c4cnc[nH]4)ccc3n2)cc1 |
| 206 to 208 °C | CC(=O)Oc1c(C)cc(NC(=O)NC2=C(c3ccccc3)c3ccccc3CS2)cc1C |
| 194 to 196 °C | CCCn1c(=O)c2[nH]c(C(C)=Cc3ccccc3)nc2n(CCC)c1=O |
| 137 to 138 °C | O=C(Cc1ccc(F)cc1)c1c(O)c2cccnc2n(-c2cccc(OC(F)(F)F)c2)c1=O |
| 96 to 98 °C | c1ccc2c(c1)[nH]c1c2nc2ncccn21 |
| 192 °C | O=C1CCC(c2ccccc2)(c2ccccc2)C2CN(C(Cc3ccccc3)=NCc3cccc4ccccc34)CC12 (stereo not drawn) |
| 172 to 173 °C | CCn1nc(-c2ccccc2)c(C(C)=O)c(Nc2cccc3ccc(C)nc23)c1=O |
| 125 to 126 °C | CC(=O)c1ccc(Nc2cnc3c(NCc4ccccc4)nc(NCCO)nc3c2)cc1 |
| 163 to 166 °C | CS(=O)(=O)c1ccc(-c2sc(-c3ccccc3Cl)nc2-c2ccccc2F)cc1 |
| 232 to 234 °C | Nc1ncc(-c2ccc(F)cc2F)nc1C(=O)Nc1cccnc1 |
| 263 to 265 °C | COc1ccc(C(=O)CC(=O)c2ccc(O)cc2O)cc1OC |
| 224 to 227 °C | COC(=O)c1csc(-c2ccc([N+](=O)[O-])cc2)n1 |
| 41 to 43 °C | COc1ccc(SCC(=O)c2ccccc2)cc1C |
| 112 to 130 °C | CC(C)(C)OC(=O)NC(C(=O)NC1c2cc(C#N)ccc2OC(C)(C)C1O)c1ccccc1 (stereo not drawn) |
| 74 °C | COC(=O)C(c1ccccc1)c1ccccn1 (racemic) |
| 123 °C | CCOC(=O)c1ccc(OCCN2CCN(c3ccc(I)nn3)CC2)cc1 |
| 139 to 141 °C | Cc1c(CN2CCC(c3c(Cl)cccc3Cl)CC2)[nH]c2ccccc12 |
| 142 to 144 °C | Clc1cc(CBr)c2noc(-c3ccccc3)c2c1 |
| 114 to 116 °C | CN1CCCCC1CCc1ccccc1NC(=O)c1ccoc1 (stereo not drawn) |

| melting point | Structure (SMILES) |
| --- | --- |
| 145 to 146 °C | CC(=O)NNC(=O)c1ccc2occc2c1 |
| 218 °C | Cc1nc(-c2cccc(C(=O)N[C@H]3CC[C@H](CCN4CCN(c5nccc6c5CCO6)CC4)CC3)c2)no1 |
| 120 to 122 °C | O=C(COc1ncccn1)NC1CCN(Cc2ccc(Cl)c(Cl)c2)CC1 |
| 114 to 115 °C | CCC(C)(C)OC(=O)N1CCC(c2ccc(COc3ccc(S(C)(=O)=O)cc3)nc2)CC1 |
| 162 to 164 °C | CN(Cc1cc2c(=O)c(C(=O)NCc3ccc(Cl)cc3)cn(C)c2s1)CC(O)c1ccccc1 (stereo not drawn) |
| 146 to 148 °C | CN(C)C(=Nc1ccccc1)N(C)N1C(=O)c2ccccc2C1=O |
| 104 °C | ClCc1cccc2c(-c3ccccc3)nccc12 |
| 110 to 111 °C | Cc1nccn1-c1nc(-c2ccc(Cl)cc2)c(CCCOc2ccccc2O)o1 |
| 98 °C | COc1ccc(OC)c(C(=O)c2cccc([N+](=O)[O-])c2)c1 |
| 124 °C | CC(C)(Oc1ccc(OCCOc2cc(C(C)(C)C)c(O)c(C(C)(C)C)c2)cc1)C(=O)O |
| 132 to 133 °C | C[Si](C)(CCO)Cc1ccccc1 |
| 129 to 137 °C | COc1cc(OCc2cccnc2)ccc1/C=C/c1cc(/C=C/c2c[nH]c3ccccc23)n[nH]1 |
| 156 to 160 °C | CC(CCCCCC(C)NC(=O)c1ccc(OC(F)(F)F)cc1)NC(=O)c1ccc(OC(F)(F)F)cc1 (stereo not drawn) |
| 250 to 252 °C | CCCc1c(/C=C/c2ccccc2)nc2ccc(C(=O)O)cn2c1=O |
| 133 to 135 °C | CC1=C(c2ccc(C(=O)N3Cc4cccn4Cc4ccccc43)cc2C)C(C)CCC1 (stereo not drawn) |
| 163 °C | CCc1nc2c(Cl)nc(C)cc2n1-c1ccc(CCNC(=O)NS(=O)(=O)c2ccc(C)cc2)cc1 |
| 148 to 149 °C | O=C(NCCO[N+](=O)[O-])c1cnc(-c2ccccc2)s1 |
| 141 °C | NCC(=O)NCCCn1cc(-c2ccccc2)c2ccccc2c1=O |
| 135 to 137 °C | CC(C)c1nc(C(C)C)c(CCCCO)c(-c2ccc(F)cc2)c1CO |
| 90 to 92 °C | OCCc1nc(NCc2ccccn2)c2c(-c3ccccc3)csc2n1 |
| 98 to 99 °C | Cc1c(C)c2c(c(C)c1NCc1ccccc1)C(=O)C(C)(C)O2 |
| 164 to 169 °C | CCCCCCCCCCCCCCOc1ccc(NC(=O)Nc2cccc(CCBr)c2)cc1 |
| 149 to 150 °C | COc1cc(OC)nc(NC(=O)NS(=O)(=O)c2ccccc2CO)n1 |
| 233 to 236 °C | COc1cccc(N2C(=O)C3(CCCCO3)C(=O)c3cccnc32)c1 (stereo not drawn) |
| 112 to 113 °C | OCCC(c1ccccc1)C(O)(c1ccccc1)c1ccccc1 (stereo not drawn) |

The remaining lines, values behind:

| Structure (SMILES) | melting point |
| --- | --- |
| Cc1ccc(OCC(O)CNC(C)C)c([N+](=O)[O-])c1[N+](=O)[O-] (stereo not drawn) | 122 to 124 °C |
| CCCCCCCCS(=O)(=O)c1ccc(C#N)c(C#N)c1 | 70 to 71 °C |
| CCOC(=O)C1=CC2(CCC1S(=O)(=O)Nc1ccc(F)cc1Cl)OC1COCC1O2 (stereo not drawn) | 227 to 228 °C |
| CC1(C)Oc2ccc(Br)cc2C(Oc2ccc(O)nn2)C1(C)O (stereo not drawn) | 242 °C |
| CCc1c(C(=O)c2cc(C)cc(C#N)c2)[nH]c(=O)[nH]c1=O | 253 to 254 °C |
| Cc1cc(C2=NN(c3nccs3)[C@H](C)Cc3cc4c(cc32)OCO4)cc(C)c1[N+](=O)[O-] | 167 °C |
| CCNc1nc(Cl)cc(NC2CC2)n1 | 86 to 88 °C |
| CCCCn1c(=O)c2nn(S(=O)(=O)c3cccc(C(F)(F)F)c3)cc2n(CCCC)c1=O | 163 to 165 °C |
| COc1cc(CN2CCN(c3ccc(C(=O)NC4CC4)cc3C)CC2)cc2c1OCC(=O)N2 | 220 to 228 °C |
| O=C(c1ccc(Cl)cc1)N1CC2CC2(c2ccc(Cl)cc2)C1 (stereo not drawn) | 88 to 92 °C |
| C#CCn1cc(Br)cnc1=O | 139 to 141 °C |
| CNC(=O)c1nn(-c2ccc(Cl)cc2)c(=O)c2c(N)scc12 | 192 to 194 °C |
| CCCCCCCCCCCCCCCCCCOc1cc(OCCCCc2ccc3cc(O)c(O)cc3c2)cc(N(CC(=O)O)CC(=O)O)c1 | 153 to 155 °C |
| COc1ccc(C2=NN(C3CCN(C(=O)[C@H](C)N)CC3)C(=O)[C@@H]3CC=CC[C@H]23)cc1OC | 101 to 103 °C |
| CCOP(=O)(OCC)c1cc2cc(N)c(C(F)(F)F)cc2[nH]c1=O | 240 to 244 °C |
| O=C(Nc1ccc(OCCN2CCOCC2)c2ccccc12)OCC(Cl)(Cl)Cl | 124 to 125 °C |
| CSCC(NCc1cc(Br)cc(Br)c1N)C(=O)O (stereo not drawn) | 240 °C |
| Cc1cc(Cl)c(C(=O)OC(C)c2nc3c(c(=O)n(C)c(=O)n3C)n2C)c(C)n1 (stereo not drawn) | 168 to 170 °C |
| Cc1cn(CC#CCN2CCCC2=O)cn1 | 134 to 137 °C |
| CN(C(=O)c1ccc2nonc2c1)C1CCOC(=O)C1 (stereo not drawn) | 169 to 171 °C |
| CCOC(=O)C(=Cc1ccccc1[N+](=O)[O-])C(=O)C(OCC)OCC | 66 to 67.5 °C |
| CN(CC(N)=O)S(=O)(=O)Cc1cccc(C(F)(F)F)c1 | 146 to 148 °C |
| CCN(CC)CCCCC(=O)c1ccc2c(c1)Cc1cc(C(=O)CCCCN(CC)CC)ccc1-2 | 78 to 80 °C |
| CCCC(c1ccc(C#N)cc1)n1ccnc1 (stereo not drawn) | 63 to 71 °C |

| Structure (SMILES) | melting point |
| --- | --- |
| CN(C)CC1(CO)C(O)C(O)C(O)CN1C (stereo not drawn) | 76 °C |
| IC#CCOc1cccnc1 | 130 °C |
| COC(=O)c1ccc(Br)c(S(C)(=O)=O)c1 | 148 to 149 °C |
| COC(=O)c1ccc(I)c(O)c1 | 153 °C |
| COP(=O)(Cc1cc(C(C)(C)C)c(O)c(C(C)(C)C)c1)OC | 155 °C |
| CN(C)c1ccc(S(=O)CCCCCC(=O)NO)cc1 (stereo not drawn) | 95 to 97 °C |
| CCC(CC)n1nnc2c(Nc3ccc(C(C)C)cc3Br)nc(C)cc21 | 144 to 145 °C |
| COc1ccc(C2(C#Cc3ccccc3)CCC(=O)CC2)cc1OC1CCCC1 | 99 to 100 °C |
| O=C1CC2OC(CS(=O)c3ccccc3)CN12 (racemic) | 119 to 120 °C |
| COC(=O)c1ncsc1S | 100 °C |
| COc1cc(-c2cccs2)c(OC)c2c(OC)cc(-c3cccs3)c(OC)c12 | 234 to 237 °C |
| CC(C)(C)OC(=O)Nc1cc(N)cc(Cl)c1 | 85 to 87 °C |
| CC(C)(C)c1cc(OCCCCCc2nnn[nH]2)cc(C(C)(C)C)c1O | 140 to 141 °C |
| c1ccc2c(c1)CCc1ccccc1C2CCN1CCCC1 | 51 to 53 °C |
| O=C(O)COc1ccc(C2=CC(=O)CCC2)c(Cl)c1Cl | 197 to 198 °C |
| CN(C)C(=S)SC(c1ccc(Cl)cc1Cl)C(C(c1ccc(Cl)cc1Cl)N(C)C)[N+](=O)[O-] (stereo not drawn) | 152 to 154 °C |
| O=[N+]([O-])c1ccc(C2CCOCC2)cc1 | 124 °C |
| NS(=O)(=O)c1nnc(NC(=O)c2ccccc2O)s1 | > 250 °C |
| c1ccc(N(c2ccc3c(c2)Oc2ccc(N(c4ccccc4)c4cccc5ccccc45)cc2O3)c2cccc3ccccc23)cc1 | 315 °C |
| CC(C)N(C(=O)c1ccc(N)cc1)C(C)C | 170 °C |
| CC(=N)Nc1cccc(F)c1 | 175 to 177 °C |
| CCCCCCCCCCCCCCCCCCC1CC(=O)N(c2ccc([N+](=O)[O-])cc2O)C1=O (stereo not drawn) | 115 to 120 °C |
| COc1ccc(N2CCN(c3c(C)c(C)c4c(c3C)C(c3ccsc3)C(C)(C)O4)CC2)cc1 (stereo not drawn) | 128 to 131 °C |
